Measured values published in US20100196311A1, “METHODS AND COMPOSITIONS CONTAINING mTOR INHIBITORS FOR ENHANCING IMMUNE RESPONSES” (priority 2009, published 2010).

Columns and labels:
[1] = molecular target: T1, mTOR (Mus musculus, UniProt P26883+Q9JLN9); test: mTOR activity (mTOR, S6K and S6 phosphorylation by ICS) in stimulated OT-I cells; type: cell-based
T1 construct: endogenous in cells; host or cells: naive OT-I CD8+ T cells (TCR transgenic Rag2-/- mice) stimulated with Ag+B7.1 +/- IL-12
Protocol: FIG. 1. […] (A and B) OT-I cells stimulated with BOK (Ag+B7.1) (±) IL-12 were evaluated for (A) IFN-γ by ICS and (B) cytolytic activity (primary, 72 hr poststimulation; secondary, 24 hr postsecondary stimulation); ***p<0.0002. (C-E) OT-I cells stimulated with antigen (Ag) (the antigen is a peptide consisting of Ser Ile Ile followed by Asn Phe Glu which are followed by Lys and Lue (OVAp), used at 10 nM) plus B7.1 (100 μg/ml)(Ag+B7.1)(±) IL-12 (2 ng/ml) were evaluated by ICS at the indicated time points for (C) phosphorylated mTOR, (D) phosphorylated S6K, and (E) phosphorylated ribosomal S6. For mTOR inhibition, rapamycin (20 ng/ml) was added 30 min prior to addition of antigen, cytokine Data are representative of at least three independent experiments with similar outcomes. (Data are presented as mean±SEM.)
(§1) Stimulation of OT-1 Cells. Naive OT-I cells were stimulated with latex microspheres expressing H-2K^b/ovalbumin antigen and B7.1 according to known techniques. Naive OT-II cells were stimulated with anti-CD3-/anti-CD28-coated latex beads. In some experiments, the cell line derived from embryonic fibroblasts, namely, BOK (MEC.B7.SigOVA: expressing H-2K^b, OVAp and B7.1, were used as antigen-presenting cells to stimulate naive OT-I cells according to known techniques.
Although the kinase mTOR has been implicated as an integrator of various extracellular signals and a sensor for internal energy levels for determination of cell fate, the role for mTOR in integrating instructions that program naive CD8^+ T cells for type I effector differentiation is unclear. First, we tested the ability of Ag and B7.1 (Ag+B7.1) in the presence or absence of IL-12 to activate mTOR in OT-I cells at various time points after stimulation. Stimulation of naive OT-I cells with Ag+B7.1 induced mTOR phosphorylation (activation) by 2 hr, which was maximal at 12 hr and barely detectable by 48 hr (FIG. 1C). Remarkably, IL-12 addition enhanced Ag+B7.1-induced mTOR phosphorylation at 2 hr, which was maintained at 48 hr after stimulation (FIG. 1C). […] To verify that the induction of mTOR phosphorylation also led to its kinase activity, we monitored the kinetics of p70 S6K phosphorylation (Ser 371), a direct target of mTOR kinase activity. Although both Ag+B7.1 and Ag+B7.1 plus IL-12 induced similar amounts of S6K phosphorylation at 12 hr (maximal), the presence of IL-12 was able to sustain the S6K phosphorylation up to 48 hr (FIG. 10), in correlation with mTOR phosphorylation (FIG. 1C). […] The Ag+B7.1±IL-12 stimulation-induced S6K and S6 phosphorylation in OT-I cells was blocked by rapamycin (specific inhibitor of mTOR complex-1) (FIGS. 1D and 1E), thus confirming the ability of instructions to activate mTOR and its kinase activity in OT-I cells. […]

[2] = tested on: T-bet; test: T-bet mRNA and protein expression in OT-I cells; type: cell-based, mouse
Protocol: FIG. 4. IL-12-Enhanced mTOR Phosphorylation Is Essential for T-bet-Determined Type I Effector Maturation of CD8^+ T Cells. (A-C) OT-I cells stimulated with Ag+B7.1 (±) IL-12 and rapamycin were evaluated for (A) mRNA for T-bet at the indicated time points by RT-PCR, (B) T-bet protein expression at the indicated time-points by ICS, and (C) T-bet protein expression by ICS before and after antigen recall. **p<0.0035; ***p<0.0005. (D) WT and Tbx21^−1− OT-I cells were stimulated with Ag+B7.1 (±) IL-12 and evaluated for IFN-γ production at the primary and secondary phase. ***p<0.0001. (E and F) OT-I cells stimulated with Ag+B7.1 (±) IL-12 and rapamycin were transduced with T-bet-ER retroviral vector (±) 4-HT (10 nM) and evaluated by ICS for (E) T-bet protein expression by ICS and (F) IFN-γ at secondary phase (168 hr). (G and H) OT-I cells stimulated with Ag+B7.1 (±) insulin (1 U/ml) and rapamycin were evaluated by ICS for (G) S6K phosphorylation at 48 hr and (H) T-bet expression at 72 hr. Experiments shown are representative of at least three (A, B, D, E, and F) and two (C, G, and H) independent experiments with similar outcomes. (Data are presented as mean±SEM).
Retroviral Transduction and T-Bet Induction. T-bet-ER RV (Estrogen Responsive Retro Viral Vector) was cotransfected into Platinum-E cells together with the retroviral packaging vector pCL-Eco using LipoD293 DNA in vitro transfection reagent (SignaGen Laboratories) following the manufacturer's instructions. The medium was replaced the following day, and retroviral supernatant was collected 3 days after transfection. For transduction, naive OT-I cells stimulated for 24 hr, were suspended in retroviral supernatant containing polybrene (8 μg/ml; Sigma-Aldrich), and were spin-transduced at 2200 rpm for 90 min at 30° C. After spin-transduction, cells were cultured in fresh medium containing the same polarizing milieu as before, along with the addition of 4-HT (10 nM). At the end of 72 hr after initial stimulation, cells were washed thrice and maintained in the absence of any stimulation but in the presence of 4-HT and IL-7 (10 ng/ml).
Because the sustained expression of T-bet is necessary and sufficient for imprinting type I effector cell fate (Matsuda et al., 2007) and mTOR inhibition reversed IL-12 imprinted type I effector maturation in OT-I cells (FIG. 3), we next sought to determine whether rapamycin treatment affects T-bet expression in OT-I cells by performing kinetic analysis of T-bet mRNA expression (FIG. 4A). […] Moreover, inhibition of mTOR activity at 12 hr was also able to achieve loss in T-bet expression, similar to the observed loss in type I effector maturation (FIG. 3E).

[3] = tested on: OT-I cells; test: Type I effector functions (IFN-γ, CTL activity, Granzyme B) of OT-I cells, primary and secondary phase; type: cell-based, mouse; conditions: T-bet-ER-transduced; tamoxifen 10 nM; secondary phase
Protocol: FIG. 3. Sustained mTOR Activity Is Essential for Heritable Type I Effector Differentiation of CD8^+ T Cells. […] (D and E) OT-I cells were stimulated with Ag+B7.1 (±) IL-12 and rapamycin was added 12 hr after stimulation to evaluate cells for (D) S6K phosphorylation at 48 hr and (E) IFN-γ production at the primary and secondary phase. Experiments shown are representative of at least three (A and B) and two (C-E) independent experiments with similar outcomes. (Data are presented as mean±SEM.)
as §1
Evaluation of Secondary Antigen-Recall Responses In Vitro. For studying secondary antigen-recall response in vitro; OT-I cells harvested at 72 hr (primary) were washed thrice with medium and recultured (1×10^5/ml) for an additional 72 hr in a 24-well plate with IL-7 (10 ng/ml) only. At 144 hr the cells were harvested, washed thrice with medium, had numbers adjusted (5×10^5), and were restimulated with Ag/B7.1 only for an additional 24 hr (secondary stimulation). At 168 hr, the cells recovered were evaluated by flow cytometry and in vitro functional assay.
Because the presence of IL-12 during antigen stimulation augments mTOR activity and is deterministic for type I effector maturation, we analyzed whether sustained mTOR kinase activity is required for IL-12-programmed type I effector functions in OT-I cells. To do so, we stimulated naive OT-I cells with BOK±IL-12, and rapamycin and effector functions were analyzed from the primary and secondary activated OT-I pool. […] In addition, we observed a block in IL-12-induced IFN-γ production and CTL activity upon rapamycin treatment at 144 hr after primary stimulation.

[4] = tested on: gp100; test: gp100-specific IFN-γ ELISPOT of splenocytes after immunization; type: in vivo, mouse; conditions: concurrent treatment with temsirolimus; p<0.05
Description: FIG. 10. Immunization with CA9+gp100 elicited a gp100-specific IFN-γ response measured using the ELISPOT assay.
(§2) Consistent with this possibility, immunization with CA9+gp100 elicited a gp100-specific IFN-γ response from splenocytes using an ELISPOT assay. […] Further, specific killing increased with temsirolimus treatment in an in vivo CTL assay. Pmel-1 cells were adoptively transferred to C57/BL6 mice and immunized with gp100+CA9 with or without temsirolimus. Pmel-1 cells are transgenic cells that recognize the H-2 Db-restricted epitope corresponding to amino acids 25-33 of gp100.13 Target cells loaded with the H-2 Db-restricted epitope were injected and monitored 14 hours later by flow cytometry. […] When temsirolimus was administered with the vaccine, specific killing increased to 78%.

[5] = tested on: RENCA (renal cancer cells); test: In vitro growth of RENCA cells; type: cell-based, mouse
[6] = tested on: RENCA tumors expressing CA9; test: Renal cell carcinoma model: RENCA-CA9 tumors in Balb/c mice, vaccine with or without temsirolimus; type: in vivo, mouse
Protocol: FIG. 8. Renal Cell Carcinoma model. mTOR inhibition with temsirolimus enhanced the antitumor effects of a cancer vaccine (complex of hsp110 and CA9) in Balb/C mice 10 days after implantation of RENCA tumors expressing the tumor antigen CA9. Each line represents tumor growth in a single mouse. To generate the vaccine, CA9 (antigen target) and HSP110 (heat shock protein adjuvant) were complexed at 1:1 molar ratio by incubating at 43° C. for 30 min. On day 0, 2×10^5 Renca-CA9 cells were implanted into mice. The vaccine was administered i.d. on days 10, 17 and 24. Temsirolimus was inject i.p. on days 11 to 16, 18 to 23 and 25 to 30.
(§3) In the RCC model, a heat shock protein (HSP) served as an immune adjuvant and was complexed to a target antigen, carbonic anhydrase IX (CA9), which is expressed by 90% of clear cell RCCs. Balb/c mice were implanted with syngeneic RENCA tumors engineered to express CA9. In a treatment model targeting established tumor implants, mice were treated 10 days after implantation with tumor vaccine with or without temsirolimus (FIG. 8). […] In this model, CA9 was complexed to a melanoma antigen, gp100. C57/BL6 mice were implanted with syngeneic B16 tumors engineered to express gp100; mice were treated 10 days later with tumor vaccine. Similar results were obtained using a murine ovarian cancer model where the vaccine was augmented with rapamycin.

[7] = tested on: B16 melanoma; test: In vitro growth of B16 melanoma; type: cell-based, mouse
[8] = tested on: target cells loaded with gp100 25-33 epitope; test: In vivo CTL assay with Pmel-1 cells in C57/BL6 mice; set-up: species or system mouse; conditions: temsirolimus administered with the vaccine; 14 hours
Description: as §2

[9] = tested on: B16 tumors expressing gp100; test: Melanoma model: B16-gp100 tumors in C57/BL6 mice, vaccine with or without temsirolimus; type: in vivo, mouse; conditions: vaccine gp100+CA9; treated 10 days after implantation
Protocol: FIG. 9. mTOR inhibition with temsirolimus enhanced the antitumor effects of a cancer vaccine (complex of gp100 and CA9) in C57/BL6 mice treated 10 days after implantation of B16 tumors expressing gp100. Each line represents tumor growth in a single mouse. To generate the vaccine, gp100 (antigen target) and CA9 (adjuvant) were complexed at 1:1 molar ratio by incubating at RT for 30 min. On day 0, 2×10^5 B16-gp100 cells were implanted into mice. The vaccine was administered i.d. on days 10, 17 and 24. Temsirolimus was inject i.p. on days 11 to 16, 18 to 23 and 25 to 30.
as §3

[10] = 2-DG added to Ag+B7.1 and IL-12-stimulated OT-I cells

Question: `O=CC[C@@H](O)[C@H](O)[C@H](O)CO` [2-DG, 2-deoxyglucose] was tested. Which mTOR activity [1, 10] did it give?
Answer: The mTOR activity was “loss”.

Question: And the T-bet expression [2, 10]?
Answer: Its T-bet expression is “loss”.

Question: What does the source list for `CC/C(=C(\c1ccccc1)c1ccc(OCCN(C)C)cc1)c1ccccc1` [tamoxifen]?
Answer: T-bet expression in T-bet-ER-transduced OT-I cells ([2]; tamoxifen 10 nM): substantial increase; IFN-γ production in rapamycin-treated IL-12-conditioned OT-I cells [3]: restored

Question: What does the source list for `CO[C@H]1C[C@@H]2CC[C@@H](C)[C@@](O)(O2)C(=O)C(=O)N2CCCC[C@H]2C(=O)O[C@H]([C@H](C)C[C@@H]2CC[C@@H](OC(=O)C(C)(CO)CO)[C@H](OC)C2)CC(=O)[C@H](C)/C=C(\C)[C@@H](O)[C@@H](OC)C(=O)[C@H](C)C[C@H](C)/C=C/C=C/C=C/1C` [temsirolimus]?
Answer: gp100-specific IFN-γ response from splenocytes [4]: significantly augmented; Growth in vitro [5]: direct effect; Tumor growth, agent alone ([6]; treatment from 10 days after implantation): decrease; Tumor growth, combination of vaccine and temsirolimus ([6]; vaccine i.d. days 10, 17, 24, temsirolimus i.p. between): greatest effect; Growth in vitro [7]: no effect; Specific killing [8]: 78%; Tumor growth, combination of vaccine and temsirolimus [9]: greatest effect

Question: What does the source list for insulin?
Answer: mTOR activity (S6 Kp) ([1]; insulin (1 U/ml) added to Ag+B7.1-stimulated OT-I cells, 48 hr): enhanced; T-bet expression ([2]; insulin (1 U/ml) added to Ag+B7.1-stimulated OT-I cells, 72 hr): increase
